Experimental data from PMC9574934, “Targeting the Phosphatidylserine-Immune Checkpoint with a Small-Molecule Maytansinoid Conjugate” (Journal of Medicinal Chemistry, 2022).

Assays:
[1] = test system: PS-coated liposomes (DOPC/ DOPS (3:1,v/v)); experiment: Biacore SPR binding assay with PS-containing liposomes; conditions: for dissociation koff: zinc-coordinated, DOPC/DOPS (3:1) liposomes, 25 °C, DOPC reference
Procedure: Phospholipids, 1,2-dioleoyl-sn-glycero-3-phosphocholine (DOPC), and 1,2-dioleoyl-sn-glycero-3-[phospho-L-serine] (DOPS) were obtained from Avanti Polar Lipids (Alabaster, AL) in chloroform solutions. These stock solutions were combined to the indicated ratios. To a round-bottom flask, a 0.4 mL aliquot of lipid solution at concentration of 10 mg/mL was added and evaporated under a N2 gas stream to furnish a thin lipid film. Rehydration of lipid films was carried out in PBS buffer for at least 1 h at room temperature. Resulting suspensions were extruded through a 100 nm polycarbonate filter using an Avanti MiniExtruder following the manufacturer’s instructions. Zeta potential (ZP) and liposomes’ size distributions were recorded by dynamic light scattering (DLS) and microelectrophoresis using a Zetasizer Nano ZS instrument. Then, using a Biacore T200 biosensor equipped with an L1 sensor chip (GE Healthcare), binding kinetics between the conjugates and liposome were recorded at 25 °C. Preconditioning of new sensor chips was performed with running buffer (5% DMSO in phosphate-buffered saline (PBS) with final pH 7.4) and two consecutive 30 s pulses of 2:3 v/v 50 mM HCl/isopropanol at a flow rate of 30 μL/min. A fresh liposome capture plate was prepared for each binding cycle. In PBS buffer, liposomes were diluted to 0.5–1 mM and captured to saturation (30–150 s) across isolated flow cells at 2–5 μL/min. In a single injection, conjugates were first diluted with running buffer and injected over lipid surfaces. At flow rate of 30 μL/min, association and dissociation phases were examined for 60s. At the end of each binding cycle, the surface was regenerated by injecting 2:3 v/v 50 mM HCl/isopropanol and equilibrated with running buffer before the next injection of the test compound. […]
Figure S3. […] Zinc-coordinated dipicolylamine 24 and modified analog 11 were analyzed across a two-fold concentration series descending from 31.3 μM. The association was monitored for 1 min, and the dissociation time was 1 min. […]

[2] = test system: HCC 1806 human triple-negative breast cancer cell; experiment: MTS cell viability assay, HCC1806; type: cell-based; conditions: 72 h incubation
Procedure: (§1) The MTS assay was performed to examine cell viability.

[3] = test system: MIA PaCa-2 human pancreatic cells; experiment: MTS cell viability assay, MIA PaCa-2; type: cell-based; conditions: 72 h incubation, read-out: MIA PaCa2 IC50
Procedure: as §1

[4] = test system: Detroit 551 normal skin fibroblast; experiment: MTS cell viability assay, Detroit 551; type: cell-based; conditions: Homo sapiens, 72 h incubation
Procedure: as §1

[5] = Plasma incubation and tumor homogenate cleavage of conjugate; type: in vitro ADME; conditions: glutathione transferase inhibitor added to tumor homogenate
Description: Figure 3 In vivo targeting ability, plasma stability, and in vivo biodistribution of modified zinc dipicolylamine conjugates in subcutaneous HCC1806 tumor xenografts. […] (B) In vivo detection of PS-expression in the HCC1806 tumor xenograft model. Representative IVIS images of new Zn11-794 fluorescence probe in mice.

Row | dissociation koff [1] [s^–1] | Structure (SMILES) | IC50 [2] [nM] | IC50 [3] [nM] | IC50 [4] [nM] | other results
1 | 0.00358 | CCCCCC(=O)Nc1cccc(CN(Cc2cc(CN(Cc3ccccn3)Cc3cccc(NC(=O)CCCCC)n3)cc(OCCCCN)c2)Cc2ccccn2)n1 [Compound 11] |  |  |  | improvement of dissociation koff over compound 24 ([1]; PS-containing liposomes): 3 fold
2 |  | COc1cc2cc(c1Cl)N(C)C(=O)C[C@H](OC(=O)[C@H](C)N(C)C(=O)CCS)[C@]1(C)O[C@H]1[C@H](C)[C@@H]1C[C@@](O)(NC(=O)O1)[C@H](OC)/C=C/C=C(\C)C2 [Compound 14, DM1] | 8 ± 3 | 74 ± 27 | > 20000 | 
3 |  | COc1cc2cc(c1Cl)N(C)C(=O)C[C@H](OC(=O)[C@H](C)N(C)C(=O)CCC(C)(C)S)[C@]1(C)O[C@H]1[C@H](C)[C@@H]1C[C@@](O)(NC(=O)O1)[C@H](OC)/C=C/C=C(\C)C2 [Compound 16, DM4] | 4 | 30 ± 3 | > 20000 | 
4 | 0.0113 | NCCCCOc1cc(CN(Cc2ccccn2)Cc2ccccn2)cc(CN(Cc2ccccn2)Cc2ccccn2)c1 [Compound 24, reference compound] |  |  |  | 
5 |  | C=C(CC)C(=O)c1ccc(OCC(=O)O)c(Cl)c1Cl [ethacrynic acid, reference compound] |  |  |  | effect on abundance of intact conjugate 40a in tumor homogenate [5]: significantly rescued
